# According to patent US5688946A, “Amino acid derivatives having renin inhibiting activity” (Hoffmann La Roche Inc., priority 1989, dated 1997):
# Counter-ions that a name gives are not always drawn.
# Target: T1, human renin (Homo sapiens, UniProt P00797)
# T1 sequence (P00797 67-406): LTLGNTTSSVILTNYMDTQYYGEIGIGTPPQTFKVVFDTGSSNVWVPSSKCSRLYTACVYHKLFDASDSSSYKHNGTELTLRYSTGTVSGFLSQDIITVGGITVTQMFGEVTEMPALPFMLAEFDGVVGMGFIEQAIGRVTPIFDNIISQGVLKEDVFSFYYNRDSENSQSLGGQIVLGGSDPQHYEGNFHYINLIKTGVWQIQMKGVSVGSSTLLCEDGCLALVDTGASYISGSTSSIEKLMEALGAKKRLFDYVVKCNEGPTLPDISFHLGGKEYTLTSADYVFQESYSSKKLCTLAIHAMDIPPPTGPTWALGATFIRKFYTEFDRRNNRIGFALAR
# Test: In vitro test with pure human renin
# Assay type: biochemical
# Conditions: human tetradecapeptide renin substrate (hTD), pH 7.4, three hours at 37° C., angiotensin I via RIA
# Procedure: In vitro test with pure human renin
# The test is carried out in Eppendorf test tubes. The incubation mixture consists of (1) 100 μl of human renin in buffer A (0.1M sodium phosphate solution, pH 7.4, containing 0.1% bovine serum albumin, 0.1% sodium azide and 1 mM ethylenediaminetetraacetic acid), sufficient for a renin activity of 2-3 ng of angiotensin I/ml/hr.; (2) 145 μl of buffer A; (3) 30 μl of 10 μM human tetradecapeptide renin substrate (hTD) in 10 mM hydrochloric acid; (4) 15 μl of dimethyl sulphoxide with or without inhibitor and (5) 10 μl of a 0.03 molar solution of hydroxyquinoline sulphate in water.
# The samples are incubated for three hours at 37° C. or 4° C. in triplicate. 2×100 μl samples per experimental test tube are used in order to measure the production of angiotensin I via RIA (standard radioimmunoassay; clinical assay solid phase kit). Cross reactivities of the antibody used in the RIA are: angiotensin I 100%; angiotensin II 0.0013%; hTD (angiotensin I-Val-Ile-His-Ser-OH) 0.09%. The production of angiotensin I is determined by the difference between the experiment at 37° C. and that at 4° C.
# The following controls are carried out:
# (a) Incubation of hTD samples without renin and without inhibitor at 37° C. and 4° C. The difference between these two values gives the base value of the angiotensin I production.
# (b) Incubation of hTD samples with renin, but without inhibitor at 37° C. and 4° C. The difference between these values gives the maximal value of angiotensin I production.
# In each sample the base value of the angiotensin I production is subtracted from the angiotensin I production which is determined. The difference between the maximal value and the base value gives the value of the maximal substrate hydrolysis (=100%) by renin.
# The results are given as IC50 values which denote that concentration of the inhibitor at which the enzymatic activity is inhibited by 50%. The IC50 values are determined from a linear regression curve from a logit-log plot.
row,IC50 [nM],Compound
1,17,"CC(C)(N)CS(=O)(=O)C[C@@H](Cc1ccccc1)C(=O)N[C@@H](Cc1c[nH]cn1)C(=O)N[C@@H](CC1CCCCC1)[C@@H](O)[C@@H](O)C1CC1 [B, (S)-α-[(S)-α-[[(2-Amino-2-methylpropyl)sulphonyl]methyl]hydrocinnamamido]-N-[(1S,2R,3S)-1-(cyclohexylmethyl)-3-cyclopropyl-2,3-dihydroxypropyl]imidazole-4-propionamide diacetate]"
2,1.2,"O=C(N[C@@H](CC1CCCCC1)[C@@H](O)[C@@H](O)C1CC1)[C@H](Cc1c[nH]cn1)NC(=O)[C@H](Cc1ccccc1)OC(=O)N1CCCCC1 [D, (S)-α-[[(S)-1-[[(1S,2R,3S)-1-(Cyclohexylmethyl)-3-cyclopropyl-2,3-dihydroxypropyl]carbamoyl]-2-imidazol-4-ylethyl]carbamoyl]phenethyl 1-piperidinecarboxylate]"
3,2.3,"CC(C)(C)S(=O)(=O)C[C@@H](Cc1ccccc1)C(=O)N[C@@H](Cc1c[nH]cn1)C(=O)N[C@@H](CC1CCCCC1)[C@@H](O)[C@@H](F)C1CC1 [E, (S)-α-[(S)-α-[(tert-Butylsulphonyl)methyl]hydrocinnamamido]-N-[(1S,2R,3S)-1-(cyclohexylmethyl)-3-cyclopropyl-3-fluoro-2-hydroxypropyl]imidazole-4-propionamide]"
4,21,"O=C(N[C@@H](Cc1c[nH]cn1)C(=O)N[C@@H](CC1CCCCC1)[C@@H](O)[C@@H](O)C1CC1)c1cc2ccccc2[nH]1 [F, N-[(S)-1-[[(1S,2R,3S)-1-(Cyclohexylmethyl)-3-cyclopropyl-2,3-dihydroxypropyl]carbamoyl]-2-imidazol-4-ylethyl]indole-2-carboxamide]"

row,Compound,IC50 [nM]
1,"CC(C)(CN)S(=O)(=O)C[C@@H](Cc1ccccc1)C(=O)N[C@@H](Cc1c[nH]cn1)C(=O)N[C@@H](CC1CCCCC1)[C@@H](O)[C@@H](O)C1CC1 [A, (S)-α-[(S)-α-[[[(2-Amino-1,1-dimethylethyl)sulphonyl]methyl]hydrocinnamamido]-N-[(1S,2R,3S)-1-(cyclohexylmethyl)-3-cyclopropyl-2,3-dihydroxypropyl]imidazole-4-propionamidedihydrochloride]",1.8
